Laboratory results: patent US6090958A, “Compounds and compositions for delivering active agents” (Emisphere Technologies, Inc., priority 1997, dated 2000)

Conditions: rat, in vivo, 50 mg/kg
Method: An intracolonic dosing composition containing 50 mg/kg of carrier 9 and 250 μg/kg of interferon in 50% propylene glycol was prepared. Rats were administered the dosing composition by intracolonic instillation.
Rats were administered, orally and by intracolonic instillation, dosing solutions of 1 mg/kg of interferon and no carrier.

Mean peak serum interferon concentration: 2611±695
Structure (SMILES): O=C(O)CCCc1ccc(NC(=O)COc2ccccc2)cc1 [Compound 9]
